Experiment [1] addresses T1, HassOR13/HassOrco (Helicoverpa assulta, UniProt A0A0B4ZYC6).
T1 construct: gene OR13; called heterodimer; with Odorant receptor coreceptor
T1 sequence (A0A0B4ZYC6 1-425): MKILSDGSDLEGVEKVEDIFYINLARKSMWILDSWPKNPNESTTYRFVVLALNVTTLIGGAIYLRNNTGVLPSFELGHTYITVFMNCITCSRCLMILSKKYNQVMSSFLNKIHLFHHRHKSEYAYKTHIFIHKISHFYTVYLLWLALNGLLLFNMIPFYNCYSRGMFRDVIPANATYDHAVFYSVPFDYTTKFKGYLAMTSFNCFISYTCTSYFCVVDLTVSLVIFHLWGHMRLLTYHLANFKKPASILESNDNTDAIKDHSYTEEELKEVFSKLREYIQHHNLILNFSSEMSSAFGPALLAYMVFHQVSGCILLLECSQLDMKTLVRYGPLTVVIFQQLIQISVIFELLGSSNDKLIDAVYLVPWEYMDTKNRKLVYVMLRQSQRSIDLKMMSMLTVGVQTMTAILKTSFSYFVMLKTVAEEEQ
T1 sequence (A7UGE1 1-473 partner): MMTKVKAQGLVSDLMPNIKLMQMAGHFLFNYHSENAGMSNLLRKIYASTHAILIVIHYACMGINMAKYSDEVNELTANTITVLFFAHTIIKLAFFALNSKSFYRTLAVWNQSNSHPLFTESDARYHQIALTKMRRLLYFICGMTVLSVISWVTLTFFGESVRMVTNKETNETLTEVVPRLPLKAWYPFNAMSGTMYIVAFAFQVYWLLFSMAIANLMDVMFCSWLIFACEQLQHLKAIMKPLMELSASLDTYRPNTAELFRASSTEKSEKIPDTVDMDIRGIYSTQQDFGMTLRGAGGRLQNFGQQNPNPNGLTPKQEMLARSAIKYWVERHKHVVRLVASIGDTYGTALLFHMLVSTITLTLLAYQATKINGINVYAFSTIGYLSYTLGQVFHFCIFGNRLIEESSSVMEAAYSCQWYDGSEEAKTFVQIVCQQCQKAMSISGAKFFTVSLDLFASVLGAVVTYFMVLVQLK
The experiment is described as follows: two-electrode voltage clamp, Xenopus oocytes. Type of experiment: cell-based. The note with it: weak agonist; with HassOrco; holding potential −80 mV; pH 7.6.

In experiment [2] the target is T1, HassOR13/HassOrco. Kind of experiment: two-electrode voltage clamp, Xenopus oocytes. It counts as cell-based. Background: Two-electrode voltage clamp holds a large cell at a set potential and records current.

As for `CCCC/C=C\CCCCCCCC=O` [Z9-14:Ald, (Z)-9-tetradecenal], the “current at 10^-4 M” value at HassOR13/HassOrco [1] is 31 ± 8 nA.
For the molecule `CCCCCC/C=C\CCCCCCCC=O` [Z9-16:Ald, (Z)-9-hexadecenal], the “current at 10^-4 M” value on HassOR13/HassOrco [1] was 72 ± 13 nA.
Broadly, the EC50 is the concentration giving half of the maximal effect. As to `CCCC/C=C\CCCCCCCCCC=O` [Z11-16:Ald, (Z)-11-hexadecenal], the EC50 on HassOR13/HassOrco [2] was found to be 68.4 µM.

The values are drawn from publication PMC5025650, “Comparison of research methods for functional characterization of insect olfactory receptors” (Scientific Reports, 2016).
